From patent US20080167532A1, “ASSESSING CANCER TREATMENT RESPONSIVENESS” (Mayo Foundation for Medical Education and Research, priority 2006, published 2008)
“Also recorded” adds a separate entry of the source. Read-outs that look alike come from different tables or passages of the source.

Key:
DRO cells [1] = experiment: DRO cell proliferation (cell counts over six days); assay type: cell-based, human; details: for IC50: Homo sapiens
Protocol: . Cells were treated every 48 hours over six days. Cell numbers were counted and data were plotted as mean values ±S.D. The thiazolidinediones inhibited cell proliferation of DRO cells in a dose responsive fashion (FIG. 3B). […]. The EC50 concentrations were in close agreement with the IC50 concentrations for each compound (FIG. 3B).
. […] Cell numbers were counted and data were plotted as mean values ±S.D. (FIG. 9D).
DRO90-1 (DRO) and ARO81 (ARO) cells were derived from primary cultures of human anaplastic thyroid carcinoma tumors that were obtained from Dr. G. J. Juillard (University of California-Los Angeles, Los Angeles, Calif.), and KTC-2 and KTC3 cells were obtained from Dr. Junichi Kurebayashi (Podtcheko et al., J. Clin. Endocrinol. Metab., 88:1889-1896 (2003) and Pushkarev et al., Molecular mechanisms of the Effects of Low Concentrations of Taxol in Anaplastic Thyroid Cancer Cells. Endocrinology: en. 2004-0127 (2004)). Cells were cultured in RPMI 1640 medium (Cellgro, Herndon Va.) supplemented with 10% charcoal-stripped fetal bovine serum (Hyclone), non-essential amino acids, sodium pyruvate, and penicillin-streptomycin-amphotericin B at 37° C. in a humidified atmosphere with 5% CO^2. Charcoal-stripped serum was used to exclude endogenous PPAR ligands contained in serum. For proliferation studies, cells were plated in triplicate in 12-well culture plates at initial concentrations of 2×10^4 cells/well. After overnight incubation, cells were treated with 10 nM RS5444 or DMSO diluent (Sigma) for 6 days with medium, and drug changed every 48 hours. After 6 days, cells were washed with PBS (Cellgro), trypsinized, and counted by Beckman Coulter Counter (Beckman Instruments, Fullerton Calif.). […]. Cells were treated with either DMSO or 10 nM RS5444 (24 hours). After treatment, phase images were obtained on an inverted microscope. For real time PCR studies, cells were plated in 60 mm plates at 50% confluence and treated with 10 nM RS5444 for indicated incubation periods. […].
Cells were either plated in triplicate at 7.5×10^4 cells/mL in 6-well plates or 2×10^4 cells/well in 12-well plates, allowed to adhere overnight, and then transfected for 24 to 72 hours with 2 to 5 μg of either scrambled, p21^WAF1/CIP1 (1022539), RhoB (SI00058933) or PPAR-γ-specific siRNA duplexes (Qiagen Valencia, Calif.) using RNAiFect reagent (Qiagen). The DNA target sequence for PPAR-γ was 5′-[…]-3′. After transfection, cells in the 6-well plates were treated with either DMSO diluent or 10 nM RS5444 for 24 hours and then analyzed by either real time PCR or immunoblotting. Cells in the 12-well plates were exposed for 6 days with medium, and drug changed every 48 hours. After 6 days, cells were washed with PBS (Cellgro), trypsinized, and counted by Beckman Coulter Counter.

DRO cells [2] = experiment: Western blot of RhoB, RhoA, p21, cyclin E polypeptides in DRO cells; assay type: cell-based, human
Protocol: RhoB and p21^WAF1/CIP1 polypeptide expression also was examined in ATC cells to determine the time course of induction of each polypeptide following stimulation with a PPARγ agonist (FIG. 6). […]. Polypeptide lysates were prepared and examined for RhoB, RhoA and β-actin expression. […]; FIG. 6A).
The time course for induction of RhoB and p21^WAF1/CIP1 was determined using Western blotting.
DRO90-1 (DRO) and ARO81 (ARO) cells were derived from primary cultures of human anaplastic thyroid carcinoma tumors that were obtained from Dr. G. J. Juillard (University of California-Los Angeles, Los Angeles, Calif.), and KTC-2 and KTC3 cells were obtained from Dr. Junichi Kurebayashi (Podtcheko et al., J. Clin. Endocrinol. Metab., 88:1889-1896 (2003) and Pushkarev et al., Molecular mechanisms of the Effects of Low Concentrations of Taxol in Anaplastic Thyroid Cancer Cells. Endocrinology: en. 2004-0127 (2004)). Cells were cultured in RPMI 1640 medium (Cellgro, Herndon Va.) supplemented with 10% charcoal-stripped fetal bovine serum (Hyclone), non-essential amino acids, sodium pyruvate, and penicillin-streptomycin-amphotericin B at 37° C. in a humidified atmosphere with 5% CO^2. Charcoal-stripped serum was used to exclude endogenous PPAR ligands contained in serum. For proliferation studies, cells were plated in triplicate in 12-well culture plates at initial concentrations of 2×10^4 cells/well. After overnight incubation, cells were treated with 10 nM RS5444 or DMSO diluent (Sigma) for 6 days with medium, and drug changed every 48 hours. After 6 days, cells were washed with PBS (Cellgro), trypsinized, and counted by Beckman Coulter Counter (Beckman Instruments, Fullerton Calif.). For morphology studies, cells were plated in 12 well plates at initial concentrations of 2.5×10^4 cells/well. Cells were treated with either DMSO or 10 nM RS5444 (24 hours). After treatment, phase images were obtained on an inverted microscope. For real time PCR studies, cells were plated in 60 mm plates at 50% confluence and treated with 10 nM RS5444 for indicated incubation periods. […].
Cells were collected and lysed in RIPA buffer containing 50 mM Tris, 5 mM EDTA, 150 mM NaCl, 0.1% SDS, 0.5% Deoxycholate, 1% NP40, and protease inhibitor cocktail (Roche) followed by centrifugation. Excised tumor tissues were lysed in 50 mM Tris pH 8.0+1% SDS. Collected supernatants were, analyzed for protein concentration using Pierce's BCA assay, with 25 μg protein loaded per gel lane (Invitrogen) with later transfer to Immobilon-P membranes. The membranes were hybridized with antibodies (Santa Cruz, Cell Signaling, Sigma-Aldrich, St. Louis Mo.) as indicated overnight at 4° C. followed by treatment with species-specific horseradish peroxidase IgG (Jackson labs) for 45 minutes at room temperature. Detection was performed using Supersignal West Pico chemoluminescence kit (Pierce). Quantification of bands was performed in triplicate using Image Quant 5.2 (Molecular Dynamics, Sunnyvale Calif.).

PPARγ = biological target: T1, PPARγ (Homo sapiens, UniProt P37231); experiment: PPRE3-tk-luc reporter (dual luciferase) assay in DRO cells; assay type: cell-based; set-up: endogenous in cells; host or cells: DRO90-1 (DRO) human anaplastic thyroid carcinoma cells
T1 sequence (P37231 1-505): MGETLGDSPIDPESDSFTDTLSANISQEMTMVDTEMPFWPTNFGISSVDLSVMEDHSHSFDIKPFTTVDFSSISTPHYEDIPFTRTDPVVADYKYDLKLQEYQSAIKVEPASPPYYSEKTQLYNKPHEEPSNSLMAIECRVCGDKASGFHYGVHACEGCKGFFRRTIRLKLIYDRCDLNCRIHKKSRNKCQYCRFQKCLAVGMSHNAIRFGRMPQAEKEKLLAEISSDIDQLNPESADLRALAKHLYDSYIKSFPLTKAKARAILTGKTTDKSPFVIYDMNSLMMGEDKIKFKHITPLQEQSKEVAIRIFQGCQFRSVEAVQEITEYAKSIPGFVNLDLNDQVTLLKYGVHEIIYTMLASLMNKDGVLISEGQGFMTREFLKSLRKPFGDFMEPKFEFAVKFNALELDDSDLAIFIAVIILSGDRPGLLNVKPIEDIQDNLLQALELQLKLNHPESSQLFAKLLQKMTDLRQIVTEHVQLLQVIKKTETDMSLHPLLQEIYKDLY
Protocol: The effects of PPARγ agonists on DRO cells were investigated. […] Firefly luciferase activity was normalized to renilla […] activity (RLU) and plotted as mean values ±S.D. (FIG. 3A).
Cells were transfected with siRNA for 72 hours followed by transfected with a PPRE3-tk-luc reporter and treatment with 10 nM RS5444 for 24 hours. […] Cotransfection with renilla luciferase allowed for normalization to relative light units (RLU).
Cells were plated in 6-well culture plates at initial concentrations of 2×10^5 cells/well. After overnight incubation, cells were transfected with PPRE/luc and CMV/renilla luciferase plasmid using Lipofectamine 2000 (Invitrogen), and after 24 hours, cells were treated with PPAR-γ agonists at indicated concentrations. After 24 hours of drug treatments, cells were washed with PBS and lysed in 1× reporter lysis buffer (Roche), and luciferase activity was measured with a Dual Luciferase assay kit (Promega, Madison Wis.) with a luminometer (Veritas/Turner Biosystems). The enzyme activity was normalized for efficiency of transfection on the basis of renilla activity levels and reported as relative light units (RLU).

[3] = DRO cells treated every 48 hours over six days, read-out: IC50, concentration at which 50% of cell proliferation was inhibited

COC(=O)[C@H](CCSC)NC(=O)c1ccc(NC[C@@H](N)CS)cc1-c1ccccc1 [FTI-277]
inhibition of cell proliferation with RhoB vs scrambled siRNA (DRO cells [1]; DRO cells transfected with RhoB or scrambled siRNA, treated every 48 hours for 6 days): dependent upon the upregulation of RhoB polypeptide to inhibit cell proliferation | RhoB and p21 expression (Western blot) (DRO cells [2]; 24 hours, 10 nM RS5444, 1 ng/mL FK-228, 10 μM FTI-277): upregulation of both RhoB and p21 expression

O=C(Nc1ccccc1)c1cc([N+](=O)[O-])ccc1Cl [GW9662]
effect on growth inhibition by TZDs (DRO cells [1]; DRO cells pretreated one hour with 10 μM GW9662 before 10 nM RS5444, 1 μM rosiglitazone or 10 μM troglitazone, every 48 hours over six days): no longer growth inhibited | effect of antagonist on RS5444-induced RhoB polypeptide expression (DRO cells [2]; GW9662 plus 10 nM RS5444, 24 hours): abolished; also recorded: blocked the ability of RS5444 to elevate RhoB polypeptide expression | effect on RS5444 inducible luciferase activity (PPARγ; 10 μM GW9662 followed by 10 nM RS5444 one hour later): complete loss of RS5444 inducible luciferase activity | effect on agonist activation of PPARγ-induced luciferase activity (PPARγ; DRO cells pretreated 5 minutes with 10 μM GW9662 before 10 nM RS5444, 1 μM rosiglitazone or 10 μM troglitazone): abolished

CN(CCOc1ccc(CC2SC(=O)NC2=O)cc1)c1ccccn1 (stereo not drawn) [rosiglitazone]
IC50 (DRO cells [1]; [3]): ~75 nM

Cc1c(C)c2c(c(C)c1O)CCC(C)(COc1ccc(CC3SC(=O)NC3=O)cc1)O2 (stereo not drawn) [troglitazone]
IC50 (DRO cells [1]; DRO cells treated every 48 hours for six days (FIG. 3B legend), read-out: IC50, DRO cell number): ~1400 nM | IC50 (DRO cells [1]; [3]): ~1410 nM
